Laboratory results from US10202360B2 (CELGENE QUANTICEL RESEARCH, INC., priority 2016, dated 2019).
pIC50: −log10 of the molar value.

Molecular target: CREBBP (Homo sapiens (Human), UniProt Q92793)
Experiment: In vitro enzyme inhibition assay - CREBBP inhibition (AlphaScreen, biotinylated H4-tetraacetyl peptide)
Assay type: binding
Details: Table 28; AlphaScreen, H4-tetraacetyl peptide
Procedure, shortened: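 His-tagged CREBBP expressed in E. coli (50 nM final) incubated with biotinylated H4K5/8/12/16(Ac) peptide (20 nM final) in HEPES pH 7.3 buffer, 0.4% DMSO, 20 min at room temperature.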

Sequence of CREBBP (Q92793 1081-1197): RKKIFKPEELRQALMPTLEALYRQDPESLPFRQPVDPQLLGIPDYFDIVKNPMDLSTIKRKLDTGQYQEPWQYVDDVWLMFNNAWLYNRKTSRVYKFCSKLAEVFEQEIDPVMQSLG

Compound	pIC50
Cn1cc(-c2cc(Nc3ccccc3)nc(Oc3ccc(F)cc3F)n2)ccc1=O [Example 276, 5-(2-(2,4-difluorophenoxy)-6-(phenylamino)pyrimidin-4-yl)-1-methylpyridin-2(1H)-one]	> 6.30
Cc1cccc(F)c1Oc1nc(N[C@@H]2CCCc3ccccc32)cc(-c2ccc(=O)n(C)c2)n1 [Example 307, (R)-5-[2-(2-Fluoro-6-methyl-phenoxy)-6-(1,2,3,4-tetrahydro-naphthalen-1-ylamino)-pyrimidin-4-yl]-1-methyl-1H-pyridin-2-one]	> 6.30
CCS(=O)(=O)Nc1cc(-c2cc(C)c(=O)n(C)c2)nc(OCC(F)(F)F)n1 [Example 151, N-(6-(1,5-dimehtyl-6-oxo-1,6-dihydropyridin-3-yl)-2-(2,2,2-trifluoroethoxy)pyrimidin-4-yl)ethanesulfonamide]	> 6.30
CCCCCS(=O)(=O)Nc1nc(Oc2c(C)cccc2F)nc(-c2cc(C)c(=O)n(C)c2)n1 [Example 185, Pentane-1-sulfonic acid [4-(1,5-dimethyl-6-oxo-1,6-dihydro-pyridin-3-yl)-6-(2-fluoro-6-methyl-phenoxy)-[1,3,5]triazin-2-yl]-amide]	> 6.30
CCCCS(=O)(=O)Nc1cc(-c2ccc(=O)n(C)c2)nc(Oc2c(C)cccc2C#N)n1 [Example 108, Butane-1-sulfonic acid [2-(2-cyano-6-methyl-phenoxy)-6-(1-methyl-6-oxo-1,6-dihydro-pyridin-3-yl)-pyrimidin-4-yl]-amide]	> 6.30
CCc1cccc(Cl)c1Oc1nc(NS(=O)(=O)C(C)C)cc(-c2cc(C)c(=O)n(C)c2)n1 [Example 43, Propane-2-sulfonic acid [2-(2-chloro-6-ethyl-phenoxy)-6-(1,5-dimethyl-6-oxo-1,6-dihydro-pyridin-3-yl)-pyrimidin-4-yl]-amide]	> 6.30
CCCCS(=O)(=O)Nc1nc(Oc2c(C)cccc2F)nc(-c2cc(C)c(=O)n(C)c2)n1 [Example 174, Butane-1-sulfonic acid [4-(1,5-dimethyl-6-oxo-1,6-dihydro-pyridin-3-yl)-6-(2-fluoro-6-methyl-phenoxy)-[1,3,5]triazin-2-]-amide]	> 6.30
Cc1cccc(C)c1Oc1nc(NS(=O)(=O)C(C)C)c(C)c(-c2cc(C)c(=O)n(C)c2)n1 [Example 163, Propane-2-sulfonic acid [6-(1,5-dimethyl-6-oxo-1,6-dihydro-pyridin-3-yl)-2-(2,6-dimethyl-phenoxy)-5-methyl-pyrimidin-4-yl]-amide]	> 6.30
CCCS(=O)(=O)Nc1cc(-c2ccc(=O)n(C)c2)nc(OC(C)C)n1 [Example 237, Propane-1-sulfonic acid [2-isopropoxy-6-(1-methyl-6-oxo-1,6-dihydro-pyridin-3-yl)-pyrimidin-4-yl]-amide]	> 6.30
CCS(=O)(=O)Nc1cc(-c2cc(C)c(=O)n(C)c2)nc(Cc2ccc(F)cc2F)n1 [Example 94, Ethanesulfonic acid [2-(2,4-difluoro-benzyl)-6-(1,5-dimethyl-6-oxo-1,6-dihydro-pyridin-3-yl)-pyrimidin-4-yl]-amide]	> 6.30
CCCS(=O)(=O)Nc1cc(-c2ccc(=O)n(C)c2)nc(Oc2c(C)ccc(F)c2F)n1 [Example 348, N-(2-(2,3-difluoro-6-methylphenoxy)-6-(1-methyl-6-oxo-1,6-dihydropyridin-3-yl)pyrimidin-4-yl)propane-1-sulfonamide]	> 6.30
Cc1cccc(F)c1Oc1nc(NCc2cccnc2)cc(-c2ccc(=O)n(C)c2)n1 [Example 303, 5-{2-(2-Fluoro-6-methyl-phenoxy)-6-[(pyridin-3-ylmethyl)-amino]-pyrimidin-4-yl}-1-methyl-1H-pyridin-2-one]	> 6.30
CCCCS(=O)(=O)Nc1cc(-c2ccc(=O)n(C)c2)nc(Oc2c(C)ccc(F)c2F)n1 [Example 347, N-(2-(2,3-difluoro-6-methylphenoxy)-6-(1-methyl-6-oxo-1,6-dihydropyridin-3-yl)pyrimidin-4-yl)butane-1-sulfonamide]	> 6.30
Cc1cccc(Cl)c1Oc1nc(NCCC(C)C)cc(-c2ccc(=O)n(C)c2)n1 [Example 315, 5-[2-(2-Chloro-6-methyl-phenoxy)-6-(3-methyl-butylamino)-pyrimidin-4-yl]-1-methyl-1H-pyridin-2-one]	> 6.30
CCCCS(=O)(=O)Nc1cc(-c2ccc(=O)n(C)c2)nc(Oc2c(C)cccc2Cl)n1 [Example 102, Butane-1-sulfonic acid [2-(2-chloro-6-methyl-phenoxy)-6-(1-methyl-6-oxo-1,6-dihydro-pyridin-3-yl)-pyrimidin-4-yl]-amide]	> 6.30
CCCCS(=O)(=O)Nc1nc(Oc2c(C)cccc2F)nc(-c2ccc(=O)n(C)c2)n1 [Example 178, Butane-1-sulfonic acid [4-(2-fluoro-6-methyl-phenoxy)-6-(1-methyl-6-oxo-1,6-dihydro-pyridin-3-yl)-[1,3,5]triazin-2-yl]-amide]	> 6.30

Compound	pIC50
Cc1cccc(F)c1Oc1nc(-c2ccc(=O)n(C)c2)cc(N(C)Cc2ccccc2)n1 [Example 293, 5-[6-(Benzyl-methyl-amino)-2-(2-fluoro-6-methyl-phenoxy)-pyrimidin-4-yl]-1-methyl-1H-pyridin-2-one]	> 6.30
CCCS(=O)(=O)Nc1cc(-c2ccc(=O)n(C)c2)nc(Oc2c(C)cccc2F)n1 [Example 120, Propane-1-sulfonic acid [2-(2-fluoro-6-methyl-phenoxy)-6-(1-methyl-6-oxo-1,6-dihydro-pyridin-3-yl)-pyrimidin-4-yl]-amide]	> 6.30
Cc1cc2c(Oc3nc(NS(=O)(=O)C(C)C)cc(-c4cc(C)c(=O)n(C)c4)n3)cccc2o1 [Example 58, N-(6-(1,5-dimethyl-6-oxo-1,6-dihydropyridin-3-yl)-2-((2-methylbenzofuran-4-yl)oxy)pyrimidin-4-yl)propane-2-sulfonamide]	> 6.30
Cc1cccc(Cl)c1Oc1nc(NC2CCCC2)cc(-c2ccc(=O)n(C)c2)n1 [Example 284, 5-(2-(2-chloro-6-methylphenoxy)-6-(cyclopentylamino)pyrimidin-4-yl)-1-methylpyridin-2(1H)-one]	> 6.30
CCC[C@H](C)S(=O)(=O)Nc1cc(-c2ccc(=O)n(C)c2)nc(Oc2c(C)cccc2F)n1 [Example 216, (2S)-Pentane-2-sulfonic acid [2-(2-fluoro-6-methyl-phenoxy)-6-(1-methyl-6-oxo-1,6-dihydro-pyridin-3-yl)-pyrimidin-4-yl]-amide]	> 6.30
CCCCS(=O)(=O)Nc1cc(-c2ccc(=O)n(C)c2)nc(Oc2c(C)cc(F)cc2F)n1 [Example 343, N-(2-(2,4-difluoro-6-methylphenoxy)-6-(1-methyl-6-oxo-1,6-dihydropyridin-3-yl)pyrimidin-4-yl)butane-1-sulfonamide]	> 6.30
Cc1cccc(F)c1Oc1nc(NS(=O)(=O)CCC(C)C)cc(-c2ccc(=O)n(C)c2)n1 [Example 248, 3-Methyl-butane-1-sulfonic acid [2-(2-fluoro-6-methyl-phenoxy)-6-(1-methyl-6-oxo-1,6-dihydro-pyridin-3-yl)-pyrimidin-4-yl]-amide]	> 6.30
CC[C@@H](C)S(=O)(=O)Nc1cc(-c2ccc(=O)n(C)c2)nc(Oc2c(F)cccc2OC)n1 [Example 208, Butane-(2R)-sulfonic acid [2-(2-fluoro-6-methoxy-phenoxy)-6-(1-methyl-6-oxo-1,6-dihydro-pyridin-3-yl)-pyrimidin-4-yl]-amide]	> 6.30
CCCS(=O)(=O)Nc1cc(-c2cc(C)c(=O)n(C)c2)nc(Oc2c(C)cccc2F)n1 [Example 21, Propane-1-sulfonic acid [6-(1,5-dimethyl-6-oxo-1,6-dihydro-pyridin-3-yl)-2-(2-fluoro-6-methyl-phenoxy)-pyrimidin-4-yl]-amide]	> 6.30
CCC(C)S(=O)(=O)Nc1cc(-c2ccc(=O)n(C)c2)nc(Oc2c(C)cc(F)cc2F)n1 (centres unmarked) [Example 345, N-(2-(2,4-difluoro-6-methylphenoxy)-6-(1-methyl-6-oxo-1,6-dihydropyridin-3-yl)pyrimidin-4-yl)butane-2-sulfonamide]	> 6.30
CCS(=O)(=O)Nc1nc(Oc2c(C)cccc2C)nc(-c2cc(C)c(=O)n(C)c2)n1 [Example 153, Ethanesulfonic acid [4-(1,5-dimethyl-6-oxo-1,6-dihydro-pyridin-3-yl)-6-(2,6-dimethyl-phenoxy)-[1,3,5]triazin-2-yl]-amide]	> 6.30
CCCS(=O)(=O)Nc1cc(-c2cc(C)c(=O)n(C)c2)nc(Oc2cc(C(C)C)ccc2Cl)n1 [Example 39, Propane-1-sunnic acid [2-(2-chloro-5-isopropyl-phenoxy)-6-(1,5-dimethyl-6-oxo-1,6-dihydro-pyridin-3-yl)-pyrimidin-4-yl]-amide]	> 6.30
CCS(=O)(=O)Nc1nc(Oc2c(C)cccc2F)nc(-c2cc(C)c(=O)n(C)c2)c1C [Example 159, Ethane-2-sulfonic acid [6-(1,5-dimethyl-6-oxo-1,6-dihydro-pyridin-3-yl)-2-(2-fluoro-6-methyl-phenoxy)-5-methyl-pyrimidin-4-yl]-amide]	> 6.30
Cc1cc(Cl)cc(Cl)c1Oc1nc(NS(C)(=O)=O)cc(-c2ccc(=O)n(C)c2)n1 [Example 29, N-[2-(2,4-Dichloro-6-methyl-phenoxy)-6-(1-methyl-6-oxo-1,6-dihydro-pyridin-3-yl)-pyrimidin-4-yl]-methanesulfonamide]	> 6.30
CCNc1cc(-c2ccc(=O)n(C)c2)nc(Oc2c(C)cccc2F)n1 [Example 291, 5-[6-Ethylamino-2-(2-fluoro-6-methyl-phenoxy)-pyrimidin-4-yl]-1-methyl-1H-pyridin-2-one]	> 6.30
Cn1cc(-c2cc3nc(n2)Oc2cc(ccc2Cl)OCC=CCCCS(=O)(=O)N3)ccc1=O [Example 361, 5-(36-chloro-11,11-dioxido-2,4-dioxa-11-thia-12-aza-1(2,4)-pyrimidina-3(1,3)-benzenacyclododecaphan-6-en-1^6-yl)-1-methylpyridin-2(1H)-one]	> 6.30
